# Results taken from patent US8557797B2, “Triazolopyridine derivatives and their therapeutic use” (Chiesi Farmaceutici S.p.A., priority 2009, dated 2013).
# What was measured:
# p38α = biological target: T1, p38α (Homo sapiens, UniProt Q16539); assay: p38 Kinase Assay (ATF-2 phosphorylation ELISA); assay type: biochemical; conditions: 2 h pre-incubation, ATP 250 μM, 1% DMSO; read-out: p38α inhibition (IC50 values)
# T1 construct: purchased Calbiochem 559324; host or cells: E. coli
# Procedure: Human recombinant p38 enzyme expressed in E. coli and activated by incubation with MKK6 enzyme (Calbiochem #559324) is used as source of enzyme activity.
# The assay is carried in high binding, clear, flat bottom 96 well assay plates which have been coated with recombinant ATF-2 (Biosource #PHF0043). Test compounds are incubated with p38 kinase for 2 h prior to initiating the kinase assay by the addition of ATP to obtain an assay concentration of 250 μM. Phosphorylation of ATF-2 is detected and quantified using an ELISA. This consists of sequential incubation in the presence of anti-phospho-ATF2, biotinylated anti-IgG and streptavidin-HRP. Incubation with an HRP chromogenic substrate (TMB) results in absorbance that is proportional to the amount of phosphorylated substrate produced. Absorbance is detected using a multiwell plate reader.
# Compounds are diluted in DMSO prior to addition to assay buffer, the final DMSO concentration in the assay being 1%.
# The IC50 is defined as the concentration at which a given compound achieves 50% inhibition of control.
# [1] = tested on: TNFα release from LPS activated THP-1 cells or PBMC's; assay: p38 Functional Assay (TNFα release after LPS); assay type: cell-based; conditions: Homo sapiens, 1 h pre-treatment, 0.3% DMSO, read-out: EC50 (inhibition of TNFα release)
# Procedure: Inhibition of cellular p38 depresses the release of TNFα, a functional response which is quantified by measurement of the amount of TNFα in the supernatants of LPS activated THP-1 cells (an immortalised monocytic cell line) or peripheral blood mononuclear cells (PBMC's) isolated from freshly drawn human blood.
# Cells seeded in 96 well plates are pre-treated by the addition of p38 inhibitors for 1 h followed by addition of lipopolysaccharide (LPS) to activate cytokine production and release. The amount of TNFα released into the cell supernatants is quantified using an R&D Systems enzyme linked immunosorbant assay (ELISA) kit (product DY210) following the manufacturers instructions.
# Compounds are diluted in DMSO prior to addition, the final DMSO concentration in the assay being 0.3%. The EC50 is defined as the concentration at which a given compound achieves 50% inhibition of the control.
# T1 sequence (Q16539 whole entry): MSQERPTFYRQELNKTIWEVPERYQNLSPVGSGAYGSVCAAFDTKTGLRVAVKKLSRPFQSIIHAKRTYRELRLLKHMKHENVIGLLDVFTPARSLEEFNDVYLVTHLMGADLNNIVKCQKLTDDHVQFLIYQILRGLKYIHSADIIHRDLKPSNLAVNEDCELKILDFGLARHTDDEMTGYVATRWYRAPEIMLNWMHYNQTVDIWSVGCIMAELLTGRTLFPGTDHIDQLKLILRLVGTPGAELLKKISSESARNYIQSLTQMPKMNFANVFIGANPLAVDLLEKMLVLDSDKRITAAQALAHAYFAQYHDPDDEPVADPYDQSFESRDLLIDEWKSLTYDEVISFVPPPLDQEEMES
SMILES,IC50 (p38α) [nM],EC50 [1] [nM]
"Cc1ccc(-n2nc(C(C)(C)C)cc2NC(=O)C[C@H]2CC[C@H](Oc3ccc4nnc(C(C)C)n4c3)CC2)cc1 [Example 22, N-(5-tert-Butyl-2-p-tolyl-2H-pyrazol-3-yl)-2-[4-(3-isopropyl-[1,2,4]-triazolo[4,3-a]pyridin-6-yloxy)-cyclohexyl]-acetamide]",500 to 2000,500 to 7000
"Cc1ccc(-n2nc(C(C)(C)C)cc2NC(=O)N[C@H]2CC[C@H](Oc3ccc4nnc(-c5cccc(OCCN6CCOCC6)c5)n4c3)CC2)cc1 [Example 14, 1-(5-tert-Butyl-2-p-tolyl-2H-pyrazol-3-yl)-3-(trans-4-{3-[3-(2-morpholin-4-yl-ethoxy)-phenyl]-[1,2,4]triazolo[4,3-a]pyridin-6-yloxy}-cyclohexyl)-urea]",10 to 100,10 to 100
"Cc1ccc(-n2nc(C(C)(C)C)cc2NC(=O)N[C@H]2CC[C@H](Oc3ccc4nnc(C5CCCC5)n4c3)CC2)cc1 [Example 25, 1-(5-tert-Butyl-2-p-tolyl-2H-pyrazol-3-yl)-3-[4-(3-cyclopentyl-[1,2,4]triazolo[4,3-a]pyridin-6-yloxy)-cyclohexyl]-urea]",< 10,–
"Cc1ccc(-n2nc(C(C)(C)C)cc2NC(=O)N[C@H]2CC[C@H](Oc3ccc4nnc(C(C)C)n4c3)CC2)cc1 [Example 21, 1-(5-tert-Butyl-2-p-tolyl-2H-pyrazol-3-yl)-3-[4-(3-isopropyl-[1,2,4]triazolo[4,3-a]pyridin-6-yloxy)-cyclohexyl]-urea]",10 to 100,10 to 100
"Cc1ccc(-n2nc(C(C)(C)C)cc2NC(=O)Cc2ccc(Oc3ccc4nnc(C(C)C)n4c3)cc2)cc1 [Example 23, N-(5-tert-Butyl-2-p-tolyl-2H-pyrazol-3-yl)-2-[4-(3-isopropyl-[1,2,4]triazolo[4,3-a]pyridin-6-yloxy)-phenyl]-acetamide]",< 10,< 10
"Cc1ccc(-n2nc(C(C)(C)C)cc2NC(=O)Cc2ccc(Sc3ccc4nnc(-c5cccc(O)c5)n4c3)cc2)cc1 [Example 18, N-(5-tert-Butyl-2-p-tolyl-2H-pyrazol-3-yl)-2-{4-[3-(3-hydroxy-phenyl)-[1,2,4]triazolo[4,3-a]pyridin-6-ylsulfanyl]-phenyl}-acetamide]",< 10,10 to 100
Cc1ccc(-n2nc(C(C)(C)C)cc2NC(=O)Cc2ccc(Sc3ccc4nnc(-c5cccc(OCc6ccccc6)c5)n4c3)cc2)cc1 [Example 8],10 to 100,100 to 500
"Cc1ccc(-n2nc(C(C)(C)C)cc2NC(=O)Nc2ccc(Sc3ccc4nnc(-c5cccc(OCCN6CCOCC6)c5)n4c3)nc2)cc1 [Example 12, 1-(5-tert-Butyl-2-p-tolyl-2H-pyrazol-3-yl)-3-(6-{3-[3-(2-morpholin-4-yl-ethoxy)-phenyl]-[1,2,4]triazolo[4,3-a]pyridin-6-ylsulfanyl}-pyridin-3-yl)-urea]",10 to 100,10 to 100
"Cc1ccc(-n2nc(C(C)(C)C)cc2NC(=O)C(C)c2ccc(Sc3ccc4nnc(C(C)C)n4c3)cc2)cc1 (centres unmarked) [Example 24, N-(5-tert-Butyl-2-p-tolyl-2H-pyrazol-3-yl)-2-[4-(3-isopropyl-[1,2,4]triazolo[4,3-a]pyridin-6-ylsulfanyl)-phenyl]-propionamide]",100 to 500,–
Cc1ccc(-n2nc(C(C)(C)C)cc2NC(=O)N[C@H]2CC[C@@H](Oc3ccc4nnc(-c5cccc(OCCN6CCOCC6)c5)n4c3)CC2)cc1 [Example 15],100 to 500,500 to 7000
"O=C(NCC1CC1)c1cccc(Sc2ccc3nnc(-c4cccc(OCCN5CCOCC5)c4)n3c2)c1 [Example 1, N-Cyclopropylmethyl-3-{3-[3-(2-morpholin-4-yl-ethoxy)-phenyl]-[1,2,4]triazolo[4,3-a]pyridin-6-ylsulfanyl}-benzamide]",500 to 2000,500 to 7000
"CC(C)c1nnc2ccc(Sc3ccc(CC(=O)Nc4cc(C(C)(C)C)nn4-c4ccc(OCCN5CCOCC5)cc4)cc3)cn12 [Example 19, N-{5-tert-Butyl-2-[4-(2-morpholin-4-yl-ethoxy)-phenyl]-2H-pyrazol-3-yl}-2-[4-(3-isopropyl-[1,2,4]triazolo[4,3-a]pyridin-6-ylsulfanyl)-phenyl]-acetamide]",500 to 2000,500 to 7000
Cc1ccc(-n2nc(C(C)(C)C)cc2NC(=O)c2cccc(Sc3ccc4nnc(C(C)C)n4c3)c2)cc1 [Example 28],10 to 100,–
Cc1ccc(-n2nc(C(C)(C)C)cc2NC(=O)Nc2ccc(Sc3ccc4nnc(-c5cccc(OCc6ccccc6)c5)n4c3)cc2)cc1 [Example 11],500 to 2000,100 to 500
"CC(C)c1nnc2ccc(Sc3ccc(CC(=O)Nc4cc(C(C)(C)C)nn4-c4ccc(O)cc4)cc3)cn12 [Example 20, N-[5-tert-Butyl-2-(4-hydroxy-phenyl)-2H-pyrazol-3-yl]-2-[4-(3-isopropyl-[1,2,4]triazolo[4,3-a]pyridin-6-ylsulfanyl)-phenyl]-acetamide]",10 to 100,10 to 100
O=C(Nc1cccc(N2CCOCC2)c1)c1cccc(Sc2ccc3nnc(-c4cccc(OCCN5CCOCC5)c4)n3c2)c1 [Example 2],100 to 500,100 to 500
CC(C)(C)c1cc(NC(=O)N[C@H]2CC[C@H](Oc3ccc4nnc(-c5cccc(OCCN6CCOCC6)c5)n4c3)CC2)n(-c2ccccc2)n1 [Example 16],10 to 100,500 to 7000
"Cc1ccc(-n2nc(C(C)(C)C)cc2NC(=O)NC2CCC(Oc3ccc4nnc(-c5ccccn5)n4c3)CC2)cc1 (centres unmarked) [Example 29, 1-(5-tert-Butyl-2-p-tolyl-2H-pyrazol-3-yl)-3-[4-(3-pyridin-2-yl-[1,2,4]triazolo[4,3-a]pyridin-6-yloxy)-cyclohexyl]-urea]",10 to 100,–
Cc1ccc(-n2nc(C(C)(C)C)cc2NC(=O)Cc2ccc(Sc3ccc4nnc(C(C)C)n4c3)cc2)cc1 [Example 6],< 10,10 to 100
"CC(C)c1nnc2ccc(Sc3ccc(CC(=O)Nc4cc(C(C)(C)C)nn4-c4cccc(OCCc5ccncc5)c4)cc3)cn12 [Example 27, N-{5-tert-Butyl-2-[3-(2-pyridin-4-yl-ethoxy)-phenyl]-2H-pyrazol-3-yl}-2-[4-(3-isopropyl-[1,2,4]triazolo[4,3-a]pyridin-6-ylsulfanyl)-phenyl]-acetamide]",10 to 100,–
O=C(Nc1ccnc(N2CCOCC2)c1)c1cccc(Sc2ccc3nnc(-c4cccc(OCCN5CCOCC5)c4)n3c2)c1 [Example 3],100 to 500,10 to 100
"Cc1ccc(-n2nc(C(C)(C)C)cc2NC(=O)CN2CCC(Oc3ccc4nnc(-c5cccc(OCCN6CCOCC6)c5)n4c3)CC2)cc1 [Example 17, N-(5-tert-Butyl-2-p-tolyl-2H-pyrazol-3-yl)-2-(4-{3-[3-(2-morpholin-4-yl-ethoxy)-phenyl]-[1,2,4]triazolo[4,3-a]pyridin-6-yloxy}-piperidin-1-yl)-acetamide]",500 to 2000,500 to 7000
"Cc1ccc(-n2nc(C(C)(C)C)cc2NC(=O)Nc2ccc(Sc3ccc4nnc(-c5cccc(OCCN6CCOCC6)c5)n4c3)cn2)cc1 [Example 13, 1-(5-tert-Butyl-2-p-tolyl-2H-pyrazol-3-yl)-3-(5-{3-[3-(2-morpholin-4-yl-ethoxy)-phenyl]-[1,2,4]triazolo[4,3-a]pyridin-6-ylsulfanyl}-pyridin-2-yl)-urea]",100 to 500,10 to 100
